Data reported in article PMC4292804 (Journal of pharmacokinetics and pharmacodynamics, 2013).
Like-named read-outs stand apart in the source and are kept apart here.

Key:
[1] = Docetaxel pharmacokinetic; format: in vivo, mice; conditions: for AUC: FVB, mouse, iv, 3 mg/kg
[2] = PBPK model of docetaxel: simulations and parameter estimation; set-up: species or system mice; conditions: for % Difference between observed FVB AUC and predicted FVB AUC / % Difference between observed KO AUC and predicted KO AUC: 100 × (predicted − observed)/observed
ABCB1 [3] = assay: PBPK model: saturable ABCB1; set-up: species or system mice; conditions: value (SD) by parameter estimation, FVB data
[4] = Mdr1a/b constitutive knockout (KO), mouse, in vivo, iv, 3 mg/kg, 12 h
CYP3A4 [5] = conditions: PBPK model parameter, KO mouse model; scaled from in vitro Vmax of ref 27
[6] = cited from earlier work
tubulin [7] = conditions: higher than paclitaxel; cited from earlier work
tubulin [8] = conditions: determined for colchicine, used for docetaxel; cited from earlier work
[9] = both FVB and KO mice; intravenous; cannulated gallbladder; cited from earlier work
[10] = ref Kemper et al. 46; cited from earlier work
ABCB1 [11] = conditions: homozygous 1236C > T polymorphism in the ABCB1 gene; cited from earlier work
CYP3A4 [12] = conditions: cited from earlier work
CYP3A4 [13] = conditions: cited from earlier work; remark: listed apart in the source
[14] = Docetaxel pharmacokinetic; conditions: 3 mg/kg i.v.
[15] = value (SD) by parameter estimation, FVB and KO data

CC(=O)O[C@@]12CO[C@@H]1C[C@H](O)[C@@]1(C)C(=O)[C@H](O)C3=C(C)[C@@H](OC(=O)[C@H](O)[C@@H](NC(=O)OC(C)(C)C)c4ccccc4)C[C@@](O)([C@@H](OC(=O)c4ccccc4)[C@H]21)C3(C)C [docetaxel, Docetaxel]
Unchanged docetaxel recovered in the feces ([1]; FVB mice, 12 h, 3 mg/kg i.v.): less than 1.5 % of the administered dose
AUC ([1]; brain): 0.184 µM·h
AUC ([1]; heart): 13 µM·h
AUC ([1]; intestine): 3.21 µM·h
AUC ([1]; kidney): 14.5 µM·h
AUC ([1]; liver): 4.34 µM·h
AUC ([1]; lung): 18.9 µM·h
AUC ([1]; plasma): 0.523 µM·h
FVB tubular reabsorption rate constant (K_RABS_fvb) ([2]; FVB, value (SD) by parameter estimation): 0.02 (0.001) h^−1
KO tubular reabsorption rate constant (K_RABS_ko) ([2]; KO, value (SD) by parameter estimation): 1.8 (0.001) h^−1
% Difference between observed FVB AUC and predicted FVB AUC ([2]; brain): −4.3%
% Difference between observed KO AUC and predicted KO AUC ([2]; brain): +14.8%
% Difference between observed FVB AUC and predicted FVB AUC ([2]; heart): −11.3%
% Difference between observed KO AUC and predicted KO AUC ([2]; heart): +2.9%
First-order liver metabolism rate constant (K_LMET) ([2]; hepatic CYP3A4 metabolism, value (SD) by parameter estimation): 3,664 (1.444) h^−1
First-order FVB intestine metabolism rate constant (K_IMET_fvb) ([2]; intestinal CYP3A4 metabolism, FVB, value (SD) by parameter estimation): 19 (0.008) h^−1
% Difference between observed FVB AUC and predicted FVB AUC ([2]; intestine): −3.1%
% Difference between observed KO AUC and predicted KO AUC ([2]; intestine): +0.2%
% Difference between observed FVB AUC and predicted FVB AUC ([2]; kidney): +6.3%
% Difference between observed KO AUC and predicted KO AUC ([2]; kidney): −0.7%
% Difference between observed FVB AUC and predicted FVB AUC ([2]; liver): −8.6%
% Difference between observed KO AUC and predicted KO AUC ([2]; liver): +3.0%
% Difference between observed FVB AUC and predicted FVB AUC ([2]; lung): −7.9%
% Difference between observed KO AUC and predicted KO AUC ([2]; lung): +5.1%
% Difference between observed FVB AUC and predicted FVB AUC ([2]; plasma): −2.9%
% Difference between observed KO AUC and predicted KO AUC ([2]; plasma): +14.8%
Tubulin binding capacity, Slowly perfused (TB_sp) ([2]; value (SD) by parameter estimation): 521 (0.231) nmol/kg
Partition coefficient FVB intestine:plasma (P_int_fvb) ([2]; value (SD) by parameter estimation, FVB): 195 (0.008) Ratio
Partition coefficient Brain:plasma (P_brn) [2, 15]: 58 (0.013) Ratio
Partition coefficient Heart:plasma (P_hrt) [2, 15]: 990 (0.231) Ratio
Partition coefficient Kidney:plasma (P_kid) [2, 15]: 995 (0.222) Ratio
Partition coefficient Liver:plasma (P_liv) [2, 15]: 7,088 (1.653) Ratio
Partition coefficient Lung:plasma (P_lng) [2, 15]: 2,376 (0.546) Ratio
Partition coefficient Slowly perfused:plasma (P_sp) [2, 15]: 748 (0.174) Ratio
Partition coefficient KO intestine:plasma (P_int_ko) ([2]; value (SD) by parameter estimation, KO): 397 (33.970) Ratio
PGP transport Brain Vmax (VMAXT_brn) (ABCB1 [3]): 14,581 (3.232) nmol/h/kg
PGP transport Heart Vmax (VMAXT_hrt) (ABCB1 [3]): 14,599 (3.449) nmol/h/kg
PGP transport Kidney Vmax (VMAXT_kid) (ABCB1 [3]): 3,003 (0.012) nmol/h/kg
PGP transport Km (KMT) (ABCB1 [3]): 28 (0.007) nmol/kg
PGP transport Lung Vmax (VMAXT_lng) (ABCB1 [3]): 340,176 (13.151) nmol/h/kg
PGP transport Slowly perfused Vmax (VMAXT_sp) (ABCB1 [3]): 10 (0.002) nmol/h/kg
Unchanged docetaxel recovered in the feces [4]: less than 1.5 % of the administered dose
Saturable KO intestine metabolism Vmax (VMAXM_int_ko) (CYP3A4 [5]): 2,654 nmol/h/kg
Bound to plasma proteins [6]: 93%
Fraction of docetaxel unbound to plasma proteins (FU) ([6]; unbound fraction in the blood): 0.07
Binding affinity relative to paclitaxel (tubulin [7]): approximately 1.9 fold
Tubulin binding capacity, Brain (TB_brn) (tubulin [8]): 10,710 nmol/kg
Tubulin binding capacity, Heart (TB_hrt) (tubulin [8]): 1,970 nmol/kg
Tubulin binding capacity, Intestine (TB_int) (tubulin [8]): 1,080 nmol/kg
Tubulin binding capacity, Kidney (TB_kid) (tubulin [8]): 1,470 nmol/kg
Tubulin binding capacity, Liver (TB_liv) (tubulin [8]): 3,510 nmol/kg
Tubulin binding capacity, Lung (TB_lng) (tubulin [8]): 2,580 nmol/kg
Unchanged drug recovered in the bile [9]: 3–4 % of the dose
Increase in docetaxel exposure in the brain, KO versus FVB mice [10]: +516%
Decrease in docetaxel clearance (ABCB1 [11]): 25%
Vmax for CYP3A4 metabolism of docetaxel to M2 (CYP3A4 [12]; in vitro): 14 pmol/min/mg microsomal protein
Km (CYP3A4 [12]; read-out: Km for CYP3A4 metabolism of docetaxel to M2): 0.6 µM
Docetaxel cleared from plasma relative to wild-type mice (CYP3A4 [13]; mice with CYP3A4 expression in only the intestine): 21%
Docetaxel metabolites M1–4 recovered in the small intestine relative to wild-type mice (CYP3A4 [13]; transgenic mice with no CYP3A4 expression in the liver): 13.5%
Increase in docetaxel concentration in the liver of KO versus FVB mice ([14]; 12 h): 59%
Docetaxel plasma concentrations, FVB versus KO mice ([14]; during the study (1–12 h)): did not note differences
Docetaxel tissue concentration, KO versus FVB mice ([14]; lung, kidney, heart, intestine and brain at 2, 4, 8 and 12 h): statistically significant increase
